Experiments:
[1] = molecular target: Aromatase (Homo sapiens, UniProt P11511); test: In vitro inhibition to cytochrome P450 19A1 assayed using human placental microsomes; design: species or system Placenta
[2] = molecular target: T1, Aromatase (Rattus norvegicus, UniProt P22443); test: In vivo reduction in serum estradiol in PMSG-primed rats after 6 hr at 5 mg/kg oral dose; type: functional, organism-based; design: dose 5 mg/kg, route oral; scale not given: the % may be the effect or the level left
T1 sequence (P22443 whole entry): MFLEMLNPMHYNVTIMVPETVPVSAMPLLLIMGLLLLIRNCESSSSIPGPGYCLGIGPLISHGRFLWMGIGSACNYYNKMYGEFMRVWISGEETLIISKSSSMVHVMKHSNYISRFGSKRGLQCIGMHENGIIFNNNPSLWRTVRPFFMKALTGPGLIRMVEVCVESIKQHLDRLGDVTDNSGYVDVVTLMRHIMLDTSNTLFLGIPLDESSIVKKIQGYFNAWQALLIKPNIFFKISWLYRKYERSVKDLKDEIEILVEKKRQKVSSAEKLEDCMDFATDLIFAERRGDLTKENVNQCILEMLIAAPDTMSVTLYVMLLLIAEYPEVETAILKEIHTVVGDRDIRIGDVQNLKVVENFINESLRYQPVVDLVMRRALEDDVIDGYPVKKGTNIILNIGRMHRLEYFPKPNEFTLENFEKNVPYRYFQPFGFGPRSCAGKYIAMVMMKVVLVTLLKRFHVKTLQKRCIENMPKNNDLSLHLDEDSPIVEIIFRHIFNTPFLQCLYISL

[3] = molecular target: T1, Aromatase; test: In vivo reduction in serum estradiol in PMSG-primed rats after 2 hr at 5 mg/kg oral dose; type: functional, organism-based; design: dose 5 mg/kg, route oral; scale not given: the % may be the effect or the level left

Row | SMILES | IC50 [1] [nM] | Control [2] [%] | Control [3] [%]
1 | C=CSCC[C@]12CCC(=O)C=C1CCC1C2=CC[C@]2(C)C(=O)CCC12 (stereo partly drawn) | 50 | 24 | 25
2 | C[C@]12CC=C3C(CCC4=CC(=O)CC[C@@]43CC[Se]c3ccccc3)C1CCC2=O (stereo partly drawn) | > 1000 | – | –
3 | CSC(=O)C[C@]12CCC(=O)C=C1CCC1C2CC[C@]2(C)C(=O)CCC12 (stereo partly drawn) | 42 | 49 | 37
4 | C[C@]12CC=C3C(CCC4=CC(=O)CC[C@@]43CCSCF)C1CCC2=O (stereo partly drawn) | 50 | 41 | 31
5 | CCSCC[C@]12CCC(=O)C=C1CCC1C2=CC[C@]2(C)C(=O)CCC12 (stereo partly drawn) | 870 | – | –
6 | C[C@]12CC=C3C(CCC4=CC(=O)CC[C@@]43CCSCCS)C1CCC2=O (stereo partly drawn) | > 1000 | – | –
7 | CS[C@]12CCC(=O)C=C1CCC1C2=CC[C@]2(C)C(=O)CCC12 (stereo partly drawn) | 7400 | – | –
8 | C[C@]12CC=C3C(CCC4=CC(=O)CC[C@@]43CCSSc3ccc([N+](=O)[O-])cc3[N+](=O)[O-])C1CCC2=O (stereo partly drawn) | > 1000 | 32 | 27
9 | COCC[C@]12CCC(=O)C=C1CCC1C2=CC[C@]2(C)C(=O)CCC12 (stereo partly drawn) | 10000 | – | –
10 | CN(C)CC[C@]12CCC(=O)C=C1CCC1C2=CC[C@]2(C)C(=O)CCC12 (stereo partly drawn) | > 10000 | – | –
11 | C[C@]12CC=C3C(CCC4=CC(=O)CC[C@@]43CCSC#N)C1CCC2=O (stereo partly drawn) | > 1000 | 38 | 44
12 | C[C@]12CC=C3C(CCC4=CC(=O)CC[C@@]43CCI)C1CCC2=O (stereo partly drawn) | > 10000 | – | –
13 | C[C@]12CC=C3C(CCC4=CC(=O)CC[C@@]43CCSC3CC3)C1CCC2=O (stereo partly drawn) | > 1000 | – | –
14 | C[C@]12CC=C3C(CCC4=CC(=O)CC[C@@]43CCSC(F)F)C1CCC2=O (stereo partly drawn) | > 1000 | – | –
15 | CCSC(C[C@]12CCC(=O)C=C1CCC1C2=CC[C@]2(C)C(=O)CCC12)SCC (stereo partly drawn) | > 1000 | – | –
16 | CSCC[C@]12CCC(=O)C=C1CCC1C2=CC[C@]2(C)C(=O)CCC12 (stereo partly drawn) | 12 | 50 | 51
17 | C[C@]12CC=C3C(CCC4=CC(=O)CC[C@@]43CCSSc3ccccc3)C1CCC2=O (stereo partly drawn) | > 1000 | 62 | 43
18 | CC(=O)SCC[C@]12CCC(=O)C=C1CCC1C2=CC[C@]2(C)C(=O)CCC12 (stereo partly drawn) | > 10000 | 10 | 21
19 | C[C@]12CC=C3C(CCC4=CC(=O)CC[C@@]43CCSc3ccccc3)C1CCC2=O (stereo partly drawn) | 400 | – | –
20 | CSCC[C@]12CCC(=O)C=C1CCC1C2CC[C@]2(C)C(=O)CCC12 (stereo partly drawn) | 22 | 16 | 11
21 | C#CSCC[C@]12CCC(=O)C=C1CCC1C2=CC[C@]2(C)C(=O)CCC12 (stereo partly drawn) | 330 | – | –
22 | CSC(C[C@]12CCC(=O)C=C1CCC1C2=CC[C@]2(C)C(=O)CCC12)SC (stereo partly drawn) | > 1000 | 13 | 18
23 | C=CCSCC[C@]12CCC(=O)C=C1CCC1C2=CC[C@]2(C)C(=O)CCC12 (stereo partly drawn) | 270 | – | –
24 | CSSCC[C@]12CCC(=O)C=C1CCC1C2=CC[C@]2(C)C(=O)CCC12 (stereo partly drawn) | > 1000 | 23 | 7
25 | CSCSCC[C@]12CCC(=O)C=C1CCC1C2=CC[C@]2(C)C(=O)CCC12 (stereo partly drawn) | 570 | – | –
26 | C[C@]12CC=C3C(CCC4=CC(=O)CC[C@@]43CCSCCO)C1CCC2=O (stereo partly drawn) | > 1000 | – | –
27 | C#CCSCC[C@]12CCC(=O)C=C1CCC1C2=CC[C@]2(C)C(=O)CCC12 (stereo partly drawn) | 1000 | 25 | 5
28 | C[C@]12CC=C3C(CCC4=CC(=O)CC[C@@]43CCOS(C)(=O)=O)C1CCC2=O (stereo partly drawn) | > 10000 | – | –
29 | CSCCCC12CCC(=O)C=C1CCC1C2=CC[C@]2(C)C(=O)CCC12 (single isomer, unassigned) | > 10000 | – | –

Source: ChEMBL document CHEMBL1129479, “Structure-activity relationships of a new family of steroidal aromatase inhibitors. 1. Synthesis and evaluation of a series of analogs related to 19-[(methylthio)methyl]androstenedione (RU54115)” (J Med Chem, 1996)
